Measurements from paper PMC3284447, “In vivo antinociception of potent mu opioid agonist tetrapeptide analogues and comparison with a compact opioid agonist - neurokinin 1 receptor antagonist chimera” (Molecular Brain, 2012).
“Also recorded” adds a separate entry of the source.

What was measured:
DOR [1] = assay: MVD (mouse vas deferens) tissue bioassay, DOR-representative; settings: SBCHM01 compared to AN81, MVD EC50
Text: Aba: 4-amino-1,2,4,5-tetrahydro-2-benzazepin-3-on; BBB: blood-brain barrier; CNS: central nervous system; DML: designed multiple ligand; Dmt: 2',6'-dimethyl-(S)-tyrosine; DOR: δ-opioid receptor; GPI: Guinea pig ileum; KOR: κ-opioid receptor; MOR: μ-opioid receptor; MPE: maximal possible effect; MVD: mouse vas deferens; NK1: neurokinin 1.

MOR [2] = biological target: MOR; parameters: method as in PMID 21413804; settings: [^3H]DAMGO, rat brain membrane; cited from earlier work
DOR [3] = assay: DOR binding, displacement of [^3H]DSLET from rat brain membranes; settings: SBCHM01 compared to AN81, Ki
NK1R = settings: calculated using the Schild's equation; cited from earlier work
Text: Table 1 In vitro functional activities and affinities of opioid- and opioid-NK1 ligands | column: NK1R pA2^a

male C57Bl6 mice [4] = assay: hot water tail-flick test, acute antinociception after i.v. administration; type: in vivo, mouse; settings: i.v.; for %MPE: 120 min, ± SEM
Description: (§1) Nociceptive responses to thermally-induced pain were assessed by the hot water tail-flick test using male C57Bl6 mice. Animals (weighing 25-28 g) were maintained on a normal light-dark cycle and testing occurred during the light cycle. Mice were injected intravenously (i.v.) with the examined drug, dissolved in saline, at different doses. For the verification of drug-induced antinociceptive tolerance, the investigated compounds were administered (i.v.) once per day for 5 days (2 and 4 mg/kg for SBCHM01 and 4 mg/kg for both AN81 and BVD03) and the analgesic effect was measured on the first and the fifth day of the experiment. In each case (both acute and chronic treatment) the effect was measured over a minimum time period of 120 minutes. The antinociceptive effect was measured in triplicate at the following time points post-injection: 5, 15, 30, 60, 120 min (and 180 min for SBCHM01; due to the strong and long-lasting analgesic effect produced by AN81 (Figure 2C), there was no possibility to prolong the experiment, which - if prolonged - could in consequence cause major damage to the animal's tail, thus giving spurious nociceptive responses). Responses to thermal hot stimulus were assessed by the latency with which the mouse removed its tail from 55°C water. A cut-off time of 10 s was used in order to prevent tissue damage.
(§2) In order to compare the antinociceptive effect induced by the examined drugs, morphine was used as a standard reference.
(§3) Data are presented as means ± standard errors of the mean (SEM). All of the calculations and statistical analysis were performed using Prism 5.0 (Graph Pad Software, San Diego, CA, USA). The nociceptive scores were analyzed using a two-way Anova with Bonferroni's post hoc test. The p value (the value of probability) as well as inferential statistics - F test, which include information about the obtained magnitude or value of the test statistic and degrees of freedom, are represented.

male C57Bl6 mice [5] = assay: hot water tail-flick test, tolerance after daily i.v. administration for 5 days; type: in vivo, mouse
Description: as §1, §2, §3

hNK1R = settings: [^3H]-SP, hNK1-CHO membranes; means ± SEM of three independent experiments; one site competition fitting; cited from earlier work
Text: Table 1 In vitro functional activities and affinities of opioid- and opioid-NK1 ligands | column: hNK1R Ki (nM)^b

MOR [6] = test system: MOR; parameters: method as in PMID 21413804; settings: GPI tissue bioassay; means of 3-6 experiments ± SEM; cited from earlier work
DOR [7] = test system: DOR; parameters: method as in PMID 21413804; settings: MVD tissue bioassay; means of 3-6 experiments ± SEM; cited from earlier work
KOR = settings: [^3H]U69,593, guinea pig brain membrane; cited from earlier work
Text: Table 1 In vitro functional activities and affinities of opioid- and opioid-NK1 ligands | column: KOR Ki (nM)^e, f

DOR [8] = biological target: DOR; parameters: method as in PMID 21413804; settings: [^3H]DSLET, rat brain membrane; cited from earlier work
[9] = test system: male, Sprague-Dawley rats; settings: TY005, rats; i.t. administration, paw withdrawal test; cited from earlier work
Text: Recently, Vanderah and coworkers reported the detailed in vivo evaluation of H-Tyr-D-Ala-Gly-Phe-Met-Pro-Leu-Trp-O-3',5'-Bn(CF3)2 (TY005) in several animal assays to define the role of this compound in thermal and tactile stimuli in uninjured, sham- and nerve-injured male, Sprague-Dawley rats. They observed that this compound was able to exert the desired dual activity in vivo. […] This is in contrast to the current study, where the hot water tail-flick assay served as a model for acute pain and in which the drug was injected intravenously. […] For a general clinical applicability, an important goal in pain research consists of the discovery and development of improved analgesic drugs which could be admi ...

rodents = settings: administered centrally or peripherally in rodents; cited from earlier work
Text: From our previous results, we selected three opioid tetrapeptides with promising in vitro potency for further in vivo evaluation. […] We recently identified the opioid ligands H-Dmt-NMe-D ...

MOR [10] = test system: MOR; parameters: method as in PMID 8981054, PMID 7712029; settings: cited from earlier work

H-Dmt-D-Arg-Aba-Gly-NMe-3',5'-Bn(CF3)2 [SBCHM01]
fold decrease in DOR potency vs AN81 (DOR [1]): 103 fold
Ki (MOR [2]): 0.416 ± 0.012 nM
fold decrease in DOR binding vs AN81 (DOR [3]): 17 fold
NK1R pA2 (NK1R): 7.8
%MPE (male C57Bl6 mice [4]; 2 mg/kg, first day of treatment): 85.12 ± 5.43%
%MPE (male C57Bl6 mice [4]; 4 mg/kg, vs morphine: BVD03 p < 0.05, SBCHM01 p > 0.05): 80.47 ± 5.29%
antinociceptive activity relative to morphine (male C57Bl6 mice [4]; 4 mg/kg, whole period of measurements, morphine i.p. same dose): slightly weaker during the whole period of measurements
synergistic or potentiating effect of combined pharmacophores (male C57Bl6 mice [4]; opioid and NK1 pharmacophores in a single entity): neither an synergistic nor potentiating antinociceptive effect appears
tolerance development after repetitive administration (male C57Bl6 mice [5]; daily for 5 days, i.v. (morphine i.p.), measured on day 5): could not circumvent opioid induced tolerance; also recorded: mice had developed opioid-induced tolerance; also recorded: lower dose of SBCHM01 does not reduce the extent of tolerance development; also recorded: complete loss in antinociception on the fifth day of the experiment; also recorded: lost its antinociceptive potency completely upon chronic injection
%MPE (male C57Bl6 mice [5]; day 1, i.v., 2 mg/kg, 3 h, ± SEM): 71.13 ± 4.71%
potency at 180 min (male C57Bl6 mice [5]; day 1, SBCHM01 2 mg/kg i.v., morphine 4 mg/kg i.p.): decrease in potency is clearly visible
antinociceptive activity on the fifth day (male C57Bl6 mice [5]; day 5, i.v., 2 mg/kg daily, up to 3 h): Complete abolishment of SBCHM01's antinociceptive activity on the fifth day
%MPE (male C57Bl6 mice [5]; day 5, i.v., 4 mg/kg daily, 30 min, ± SEM (AN81 7-10 animals, p < 0.001; SBCHM01 8-10 mice)): 12.25 ± 7.33%
Ki (hNK1R): 0.5 ± 0.1 nM
EC50 (MOR [6]): 8.51 ± 0.62 nM
EC50 (DOR [7]): 43.3 ± 6.3 nM
Ki (KOR): 445 ± 81 nM
Ki (DOR [8]): 10.4 ± 0.6 nM

H-Tyr-D-Ala-Gly-Phe-Met-Pro-Leu-Trp-O-3',5'-Bn(CF3)2 [TY005, hybrid opioid-NK1 octapeptide ligand]
antihyperalgesic tolerance [9]: development of antihyperalgesic tolerance could be suppressed; also recorded: inhibition of antihyperalgesic tolerance; also recorded: able to attenuate tolerance development

H-Tyr-D-Ala-Phe-Gly-Tyr-Pro-Ser-NH2 [dermorphin]
tolerance development compared to morphine (rodents): induces less tolerance development when compared to morphine
affinity and selectivity for the MOR (MOR [10]): high affinity and selectivity for the MOR
